# Data from patent publication US20240148821A1, “PHARMACEUTICAL USE OF CYCLIC PEPTIDE COMPOUND” (CHUGAI SEIYAKU KABUSHIKI KAISHA, priority 2021, published 2024).
# Numbered stars: 1 amine (or outer) side, 2 acyl side, 3 side chain; on linkers, the order of the positions; unused ones are H or OH. Bridge positions count the residues as written; N and C are the ends. Square brackets hold non-standard residues; d marks the D form. Peptide text beside a SMILES is read from it. * marks the point of attachment. hPhe(3,5-F2-4-CF3) = N[C@@H](CCc1cc(F)c(C(F)(F)F)c(F)c1)C(=O)O; hPhe(3-Cl-4-CF3) = N[C@@H](CCc1ccc(C(F)(F)F)c(Cl)c1)C(=O)O; NEtPhe(4-CF3) = CCN[C@@H](Cc1ccc(C(F)(F)F)cc1)C(=O)O; X23 = N#Cc1cc(CC[C@H](N[*:1])C(=O)[*:2])ccc1C(F)(F)F; NMePhe(4-CF3) = CN[C@@H](Cc1ccc(C(F)(F)F)cc1)C(=O)O; hPhe(4-CF3) = N[C@@H](CCc1ccc(C(F)(F)F)cc1)C(=O)O; 3Oxa8azabicyclo(3.2.1)octane = C1CC2COCC1N2*; NMePhe(4-Cl) = CN[C@@H](Cc1ccc(Cl)cc1)C(=O)O; NMePhe(4-Me) = CN[C@@H](Cc1ccc(C)cc1)C(=O)O; NMedβ3hAla = C[C@H](CC(=O)[*:2])N(C)[*:1]; NGly(CH2(3-pyridyl)) = O=C(O)CNCc1cccnc1; NMeAla(cPent) = CN[C@@H](CC1CCCC1)C(=O)O; NMeGly(cPent) = CN[C@H](C(=O)O)C1CCCC1; Pro(4,4-F2) = O=C(O)[C@@H]1CC(F)(F)CN1; X132 = O=C(CN(CCOCC(F)(F)F)[*:1])[*:2]; NMeCha = CN[C@@H](CC1CCCCC1)C(=O)O; X81 = O=C(CN(CCOCC(F)F)[*:1])[*:2]; NMehLeu = CN[C@@H](CCC(C)C)C(=O)O; X4 = C#CC[C@H](CC(=O)[*:2])N[*:1]; Hyp = O=C(O)[C@@H]1C[C@@H](O)CN1; NMeChg = CN[C@H](C(=O)O)C1CCCCC1; NMeI = CC[C@H](C)[C@H](NC)C(=O)O; d(β3hL) = CC(C)C[C@@H](N)CC(=O)O; NMeD = CN[C@@H](CC(=O)O)C(=O)O; NMeL = CN[C@@H](CC(C)C)C(=O)O; NMePra = C#CC[C@H](NC)C(=O)O; NMeV = CN[C@H](C(=O)O)C(C)C; d(β3hA) = C[C@@H](N)CC(=O)O; NMeS = CN[C@@H](CO)C(=O)O; Morpholide = C1CN(*)CCO1; NMeA = CN[C@@H](C)C(=O)O; Piperidide = C1CCN(*)CC1; Pyrrolidide = C1CCN(*)C1; Ac5c = NC1(C(=O)O)CCCC1; Aze = O=C(O)[C@@H]1CCN1; Ac4c = NC1(C(=O)O)CCC1; Sar = CNCC(=O)O; Propyl = CCC*
# Molecular target: protein-protein interaction between Kras and SOS1 (biotin-tagged human Kras loaded with GDP, His-tagged human SOS1) (Homo sapiens (Human), UniProt P01116, G12D)
# Experiment: Protein-protein interaction inhibition between Kras and SOS1 (KrasG12D-SOS PPI) using AlphaScreen;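 note: kras produced in E. coli, Ni-coupled donor beads and streptavidin acceptor beads, excitation 680 nm with emission detected at 520–620 nm via singlet oxygen transfer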
# Format: biochemical
# Conditions: AlphaScreen; biotin-tagged human Kras loaded with GDP, His-tagged human SOS1; read-out: KRAS G12D-SOS PPI IC50
row,Compound,IC50
1,CC[C@H](C)[C@@H]1NC(=O)[C@H](CC(C)C)N(C)C(=O)C[C@@H](C(=O)N2CCCCC2)N(C)C(=O)[C@H](C2CCCCC2)N(C)C(=O)C2(CCCC2)NC(=O)CN(Cc2cccnc2)C(=O)[C@H](CCc2ccc(C(F)(F)F)c(Cl)c2)NC(=O)CN(C)C(=O)[C@H](CC2CCCCC2)N(C)C(=O)CN(C)C(=O)CN(C)C1=O [Compound 2026] ([NMeL]I[Sar][Sar][NMeCha][Sar][hPhe(3-Cl-4-CF3)][NGly(CH2(3-pyridyl))][Ac5c][NMeChg][NMeD]-Piperidide; lactam N-11 (inferred); C-terminus assumed),1.3 nM
2,CCCOC[C@H]1C(=O)N(C)CC(=O)N[C@@H](CCc2ccc(C(F)(F)F)c(Cl)c2)C(=O)N2CCC[C@H]2C(=O)NC2(CCCC2)C(=O)N(C)[C@@H](C2CCCC2)C(=O)N(C)[C@H](C(=O)N2C3CCC2COC3)CC(=O)N(C)[C@@H](CC2CCCC2)C(=O)N[C@@H]([C@@H](C)CC)C(=O)N(C)[C@@H](C)C(=O)N2CC[C@H]2C(=O)N1C [Compound 1251] ([NMeAla(cPent)]I[NMeA][Aze][NMeS](Propyl)[Sar][hPhe(3-Cl-4-CF3)]P[Ac5c][NMeGly(cPent)][NMeD]-{3Oxa8azabicyclo(3.2.1)octane}; lactam N-11),2.6 nM
3,CC[C@H](C)[C@@H]1NC(=O)[C@H](CC(C)C)N(C)C(=O)C[C@@H](C(=O)N2CCCCC2)N(C)C(=O)[C@H](C2CCCCC2)N(C)C(=O)C2(CCCC2)NC(=O)CN(CCOCC(F)F)C(=O)[C@H](CCc2ccc(C(F)(F)F)c(Cl)c2)NC(=O)CN(C)C(=O)[C@H](CC2CCCCC2)N(C)C(=O)CN(C)C(=O)CN(C)C1=O [Compound 2036] ([NMeL]I[Sar][Sar][NMeCha][Sar][hPhe(3-Cl-4-CF3)][X81][Ac5c][NMeChg][NMeD]-Piperidide; lactam N-11 (inferred); C-terminus assumed),1.1 nM
4,CCCOC[C@H]1C(=O)N(C)CC(=O)N[C@@H](CCc2ccc(C(F)(F)F)c(Cl)c2)C(=O)N2CCC[C@H]2C(=O)NC2(CCCC2)C(=O)N(C)[C@@H](C(C)C)C(=O)N(C)[C@H](C(=O)N2CCCCC2)CC(=O)N(C)[C@@H](CC(C)C)C(=O)N[C@@H]([C@@H](C)CC)C(=O)N(C)[C@@H](C)C(=O)N2CC[C@H]2C(=O)N1C [Compound 1646] ([NMeL]I[NMeA][Aze][NMeS](Propyl)[Sar][hPhe(3-Cl-4-CF3)]P[Ac5c][NMeV][NMeD]-Piperidide; lactam N-11),4.6 nM
5,CC[C@H](C)[C@@H]1NC(=O)[C@H](CC2CCCC2)N(C)C(=O)C[C@@H](C(=O)N2CCOCC2)N(C)C(=O)[C@H](C2CCCC2)N(C)C(=O)C2(CCCC2)NC(=O)[C@@H]2CCCN2C(=O)[C@H](CCc2ccc(C(F)(F)F)c(Cl)c2)NC(=O)CN(C)C(=O)[C@H](C2CCCC2)N(C)C(=O)[C@@H]2CCN2C(=O)[C@H](C)NC1=O [Compound 1145] ([NMeAla(cPent)]IA[Aze][NMeGly(cPent)][Sar][hPhe(3-Cl-4-CF3)]P[Ac5c][NMeGly(cPent)][NMeD]-Morpholide; lactam N-11),1.1 nM
6,CC[C@H](C)[C@@H]1NC(=O)[C@H](C(C)C)N(C)C(=O)C[C@@H](CC(C)C)NC(=O)[C@H](CC(C)C)N(C)C(=O)C2(CCCC2)NC(=O)[C@H](CC(C)C)N(C)C(=O)[C@H](CCc2ccc(C(F)(F)F)cc2)NC(=O)CN(C)C(=O)[C@H](Cc2ccc(Cl)cc2)N(C)C(=O)CN(C)C(=O)CN(C)C1=O [Compound 113] (cyclo([Ac5c][NMeL][d(β3hL)][NMeV]I[Sar][Sar][NMePhe(4-Cl)][Sar][hPhe(4-CF3)][NMeL])),280 nM
7,CC[C@H](C)[C@@H]1NC(=O)[C@H](CC(C)C)N(C)C(=O)C[C@@H](C(=O)N2CCCC2)NC(=O)[C@H]([C@@H](C)CC)N(C)C(=O)C2(CCCC2)NC(=O)[C@@H]2CCCN2C(=O)[C@H](CCc2ccc(C(F)(F)F)c(Cl)c2)NC(=O)CN(C)C(=O)[C@H](CC2CCCCC2)N(C)C(=O)[C@@H]2CCN2C(=O)[C@H](C)N(C)C1=O [Compound 453] ([NMeL]I[NMeA][Aze][NMeCha][Sar][hPhe(3-Cl-4-CF3)]P[Ac5c][NMeI]D-Pyrrolidide; lactam N-11),17 nM
8,"CCCOC[C@H]1C(=O)N(C)CC(=O)N[C@@H](CCc2cc(F)c(C(F)(F)F)c(F)c2)C(=O)N2CCC[C@H]2C(=O)NC2(CCCC2)C(=O)N(C)[C@@H](C2CCCC2)C(=O)N(C)[C@H](C(=O)N2C3CCC2COC3)CC(=O)N(C)[C@@H](CC(C)C)C(=O)N[C@@H]([C@@H](C)CC)C(=O)N(C)[C@@H](C)C(=O)N2CC[C@H]2C(=O)N1C [Compound 1355] ([NMeL]I[NMeA][Aze][NMeS](Propyl)[Sar][hPhe(3,5-F2-4-CF3)]P[Ac5c][NMeGly(cPent)][NMeD]-{3Oxa8azabicyclo(3.2.1)octane}; lactam N-11)",3.2 nM
9,CC[C@H](C)[C@@H]1NC(=O)[C@H](CC(C)C)N(C)C(=O)C[C@@H](C(=O)N2CCCCC2)N(C)C(=O)[C@H](C2CCCCC2)N(C)C(=O)C2(CCCC2)NC(=O)CN(CCOCC(F)(F)F)C(=O)[C@H](CCc2ccc(C(F)(F)F)c(Cl)c2)NC(=O)CN(C)C(=O)[C@H](CC2CCCCC2)N(C)C(=O)CN(C)C(=O)CN(C)C1=O [Compound 2024] ([NMeL]I[Sar][Sar][NMeCha][Sar][hPhe(3-Cl-4-CF3)][X132][Ac5c][NMeChg][NMeD]-Piperidide; lactam N-11 (inferred); C-terminus assumed),4.3 nM
10,CCO[C@@H]1C[C@H]2C(=O)NC3(CCC3)C(=O)N(C)[C@@H](C3CCCCC3)C(=O)N(C)[C@H](C)CC(=O)N(C)[C@@H](CC(C)C)C(=O)N[C@@H]([C@@H](C)CC)C(=O)N(C)[C@@H](C)C(=O)N3CC[C@H]3C(=O)N(CC)[C@@H](Cc3ccc(C(F)(F)F)cc3)C(=O)N(C)CC(=O)N[C@@H](CCc3ccc(C(F)(F)F)c(Cl)c3)C(=O)N2C1 [Compound 296] (cyclo([Ac4c][NMeChg][NMedβ3hAla][NMeL]I[NMeA][Aze][NEtPhe(4-CF3)][Sar][hPhe(3-Cl-4-CF3)][Hyp](Et))),55 nM
11,CC[C@H](C)[C@@H]1NC(=O)[C@H](C)N(C)C(=O)C[C@@H](C)NC(=O)[C@H](C2CCCC2)N(C)C(=O)C2(CCCC2)NC(=O)[C@@H]2CCCN2C(=O)[C@H](CCc2ccc(C(F)(F)F)c(Cl)c2)NC(=O)[C@H]2CCCN2C(=O)[C@H](Cc2ccc(C(F)(F)F)cc2)N(C)C(=O)CN(C)C(=O)CN(C)C1=O [Compound 1470] (cyclo([Ac5c][NMeGly(cPent)][d(β3hA)][NMeA]I[Sar][Sar][NMePhe(4-CF3)][dP][hPhe(3-Cl-4-CF3)]P)),210 nM
12,CC[C@H](C)[C@@H]1NC(=O)[C@H](CC(C)C)N(C)C(=O)C[C@@H](C(=O)N2CCCC2)N(C)C(=O)[C@H](C2CCCCC2)N(C)C(=O)C2(CCCC2)NC(=O)[C@@H]2CCCN2C(=O)[C@H](CCc2ccc(C(F)(F)F)c(Cl)c2)NC(=O)CN(C)C(=O)[C@H](Cc2ccc(C)cc2)N(C)C(=O)[C@@H]2CCN2C(=O)[C@H](C)N(C)C1=O [Compound 1852] ([NMeL]I[NMeA][Aze][NMePhe(4-Me)][Sar][hPhe(3-Cl-4-CF3)]P[Ac5c][NMeChg][NMeD]-Pyrrolidide; lactam N-11),0.94 nM
13,"CC[C@H](C)[C@@H]1NC(=O)[C@H](CC(C)C)N(C)C(=O)C[C@@H](C)N(C)C(=O)[C@H](C2CCCCC2)N(C)C(=O)C2(CCC2)NC(=O)[C@@H]2CC(F)(F)CN2C(=O)[C@H](CCc2cc(F)c(C(F)(F)F)c(F)c2)NC(=O)CN(C)C(=O)[C@H](Cc2ccc(C(F)(F)F)cc2)N(CC)C(=O)[C@@H]2CCN2C(=O)[C@H](C)N(C)C1=O [Compound 377] (cyclo([Ac4c][NMeChg][NMedβ3hAla][NMeL]I[NMeA][Aze][NEtPhe(4-CF3)][Sar][hPhe(3,5-F2-4-CF3)][Pro(4,4-F2)]))",24 nM
14,C#CC[C@H]1C(=O)N[C@@H]([C@@H](C)CC)C(=O)N(C)[C@@H](C)C(=O)N2CC[C@H]2C(=O)N(C)[C@@H](CC2CCCCC2)C(=O)N(C)CC(=O)N[C@@H](CCc2ccc(C(F)(F)F)c(Cl)c2)C(=O)N2CCC[C@H]2C(=O)NC2(CCCC2)C(=O)N(C)[C@@H](C(C)C)C(=O)N(C)[C@H](C(=O)N2CCCCC2)CC(=O)N1C [Compound 559] ([NMePra]I[NMeA][Aze][NMeCha][Sar][hPhe(3-Cl-4-CF3)]P[Ac5c][NMeV][NMeD]-Piperidide; lactam N-11),1.7 nM
15,CC[C@H](C)[C@@H]1NC(=O)[C@H](CC(C)C)N(C)C(=O)C[C@@H](C(=O)N2CCCCC2)N(C)C(=O)[C@H](C2CCCC2)N(C)C(=O)C2(CCCC2)NC(=O)[C@@H]2CCCN2C(=O)[C@H](CCc2ccc(C(F)(F)F)c(C#N)c2)NC(=O)CN(C)C(=O)[C@H](CC2CCCCC2)N(C)C(=O)[C@@H]2CCN2C(=O)[C@H](C)N(C)C1=O [Compound 2072] ([NMeL]I[NMeA][Aze][NMeCha][Sar][X23]P[Ac5c][NMeGly(cPent)][NMeD]-Piperidide; lactam N-11 (inferred); C-terminus assumed),0.42 nM
16,CC[C@H](C)[C@@H]1NC(=O)[C@H](CCC(C)C)N(C)C(=O)C[C@@H](C(=O)N2CCOCC2)N(C)C(=O)[C@H](C2CCCC2)N(C)C(=O)C2(CCCC2)NC(=O)[C@@H]2CCCN2C(=O)[C@H](CCc2ccc(C(F)(F)F)c(Cl)c2)NC(=O)CN(C)C(=O)[C@H](CC2CCCCC2)N(C)C(=O)[C@@H]2CCN2C(=O)[C@H](C)NC1=O [Compound 1171] ([NMehLeu]IA[Aze][NMeCha][Sar][hPhe(3-Cl-4-CF3)]P[Ac5c][NMeGly(cPent)][NMeD]-Morpholide; lactam N-11),0.99 nM
17,C#CC[C@@H]1CC(=O)N(C)[C@@H](CC(C)C)C(=O)N[C@@H]([C@@H](C)CC)C(=O)N(C)[C@@H](C)C(=O)N2CC[C@H]2C(=O)N(C)[C@@H](Cc2ccc(C)cc2)C(=O)N(C)CC(=O)N[C@@H](CCc2ccc(C(F)(F)F)c(Cl)c2)C(=O)N2CCC[C@H]2C(=O)NC2(CCCC2)C(=O)N(C)[C@@H]([C@@H](C)CC)C(=O)N1 [Compound 1967] (cyclo([Ac5c][NMeI][X4][NMeL]I[NMeA][Aze][NMePhe(4-Me)][Sar][hPhe(3-Cl-4-CF3)]P)),77 nM
